From US20180193453A1, “TREATMENT-RESISTANCE REDUCING AGENT FOR TREATMENT-RESISTANT CANCER” (NATIONAL UNIVERSITY CORPORATION HOKKAIDO UNIVERSITY, priority 2015, published 2018)

Tests used:
A549-DR-IL-34-KO tumor = assay: Tumor size in humanized NOG mice with DOX administration; type: in vivo; conditions: DOX 10 mg/kg/mouse intravenously, twice a week, 4 times, vs PBS, FIG. 8
A549-DR cells = assay: MTT cell viability assay with or without DOX; type: cell-based, human; conditions: DOX 1 μM, 72 hours, FIG. 7 upper
Experimental: Human lung adenocarcinoma cell line A549 was obtained from the American Type Cell Culture (ATCC, USA). Cell culture was carried out at 37° C. in an atmosphere of 5% CO2 using Dulbecco's Modified Eagle's Medium (DMEM) (SIGMA) supplemented with fetal bovine serum (at a final concentration of 10%), penicillin (at a final concentration of 100 U/mL) and streptomycin (at a final concentration of 100 μg/mL). A549 cells were cultured at 37° C. in an atmosphere of 5% CO2, in DMEM in which the DOX concentration was increased stepwise from 0.01 to 1 μM, and then cells acquiring DOX resistance were selected to generate a DOX-resistant A549 cell line (A549-DR). The resultant A549-DR cells maintained their drug resistance by exposure to 1 μM DOX.
A549-DS, A549-DR, and A549-DR-IL-34-KO cells were cultured in DMEM medium with or without DOX (at a final concentration of 1 μM). After 72 hours of culturing, an MTT assay was performed (using a cell proliferation determination kit, available from Roche Applied) to determine the viability of cells. Similarly, A549-DR cells were cultured in a medium with or without DOX in which an anti-IL-34 neutralizing antibody was added at a final concentration of 0.01 to 10 μg/mL, and the viability of cells was determined in a similar way.

A549-DR-IL-34-KO cells = assay: MTT cell viability assay with or without DOX; type: cell-based, human; conditions: DOX 1 μM, 72 hours, FIG. 7 upper
A549-DR tumor = assay: Tumor size in humanized NOG mice with DOX administration; type: in vivo; conditions: DOX 10 mg/kg/mouse intravenously, twice a week, 4 times, vs PBS, FIG. 8

COc1cccc2c1C(=O)c1c(O)c3c(c(O)c1C2=O)C[C@@](O)(C(=O)CO)C[C@@H]3O[C@H]1C[C@H](N)[C@H](O)[C@H](C)O1 [DOX, doxorubicin]
tumor size (A549-DR-IL-34-KO tumor): significantly decreased
viability of cells (A549-DR cells): did not have a decreased viability
viability of cells (sensitivity to DOX) (A549-DR-IL-34-KO cells): restored the sensitivity to DOX
tumor size (A549-DR tumor): did not change greatly
